Data as given in patent US20060002932A1, “Methods and compositions for enhancement of immunity by in vivo depletion of immunosuppressive cell activity” (priority 2004, published 2006).
Entries after “also recorded” stand apart in the source; their conditions may differ.

How the values were obtained:
[1] = test system: CD4^+CD25^int memory T-cell pool; details: after DAB389IL-2 administration; fluM1, CMV, tetanus toxoid
[2] = test system: CD4^+/CD25^+ T cells of study subjects; assay: Treg functional evaluation (suppression of anti-CD3/CD28 activated indicator T cells); assay type: in vivo, human; details: CD4^+/CD25^+ T cells isolated prior to vs 4 days after treatment
Description: The suppressive activity of Treg isolated from PBMC of study subjects prior to and 4 days after […] administration was analyzed, as described previously^25. CD4^+/CD25^+ T cells were isolated from the PBMC of study subjects using magnetic bead separation techniques. Cells were washed with PBS, resuspended in complete RPMI 1640 medium, and placed into 96-well round bottom plates pre-coated with anti-CD3/CD28 antibodies (0.4 μg/well) (Caltag). CD4^+/CD25^− cells were plated at 2.0×10^4/well alone or in combination with CD4^+/CD25^+ cells in triplicate wells at a ratio of 1:2 (CD4^+/CD25^−:CD4^+CD25^+). On day 5, 1 μCi of ^3H thymidine was added for the final 16 hr of the cultures. Cells were then harvested on glass fiber filters and assessed for uptake of radiolabeled thymidine.

[3] = test system: responder cells (PBMC) in MLR; assay: Allogeneic DC-stimulated mixed lymphocyte reaction (MLR) proliferation; assay type: cell-based, human
[4] = test system: antigen-specific CTL from PBMC; assay: 51Cr cytotoxicity assay of CTL stimulated from DAB389IL-2-depleted PBMC; assay type: cell-based, human
[5] = test system: CD3+, CD4+, CD8^+ T cells, B cells, monocytes/macrophages, NK cells; assay: Relative numbers of leukocyte subsets before and after DAB389IL-2; assay type: in vivo, human
Description: Using these methods, the degree of regulatory T cell depletion efficacy in the four subjects treated on the clinical protocol was determined.

[6] = test system: CD4^+CD25^− and CD4^+CD25^int cells; assay: MTT cytotoxicity assay on CD25 negative/intermediate CD4+ T cells; assay type: cell-based, human
Description: After 48 hours of incubation, 20 μL MTT from a 5 mg/mL stock was added and incubation was continued for another 4 hours. The formazan crystals were solubilized by adding 100 μL isopropanol/0.1 M hydrochloric acid and incubating at 37° C. for 2 hours. The absorbance of the formazan product was measured on an enzyme-linked immunosorbent assay (ELISA) plate reader at 570 nm.
Interferon-γ and IL-4 ELISPOT analyses were performed using PBMC obtained prior to, during, and after vaccination. PBMC were cultured overnight in complete RPMI 1640 medium. CD4^+ and CD8^+ T cells were isolated from PBMC by negative depletion (Miltenyi). After blocking, 1×10^5 T cells and 1×10^4 RNA-transfected DC were added to each well of 96-well nitrocellulose plates (Multiscreen-IP, Millipore) precoated with 2 μg/ml Interferon-γ capture antibody (Endogen) or with IL-4 capture antibody (BD Biosciences Pharmingen). Plates were incubated for 20 hours at 37° C., and biotinylated Interferon-γ detection antibody (Endogen) or biotinylated IL-4 antibody (BD Biosciences Pharmingen) was added to each well. […] After washing, spots were counted using an automated ELISPOT reader (Carl Zeiss). […] Then, 50 μl of supernatant was harvested, and release of ^51Cr was measured with a scintillation counter. […] Incorporation of thymidine was determined using a liquid scintillation counter.

PBMC = assay: MTT viability of PBMC (bystander toxicity); details: DAB389IL-2 5 nM
[7] = test system: CD4^+CD25^high regulatory T cells; assay: MTT cytotoxicity assay on isolated regulatory T cells; assay type: cell-based, human
Description: […] The formazan crystals were solubilized by adding 100 μL isopropanol/0.1 M hydrochloric acid and incubating at 37° C. for 2 hours. The absorbance of the formazan product was measured on an enzyme-linked immunosorbent assay (ELISA) plate reader at 570 nm.
Interferon-γ and IL-4 ELISPOT analyses were performed using PBMC obtained prior to, during, and after vaccination. PBMC were cultured overnight in complete RPMI 1640 medium. CD4^+ and CD8^+ T cells were isolated from PBMC by negative depletion (Miltenyi). After blocking, 1×10^5 T cells and 1×10^4 RNA-transfected DC were added to each well of 96-well nitrocellulose plates (Multiscreen-IP, Millipore) precoated with 2 μg/ml Interferon-γ capture antibody (Endogen) or with IL-4 capture antibody (BD Biosciences Pharmingen). Plates were incubated for 20 hours at 37° C., and biotinylated Interferon-γ detection antibody (Endogen) or biotinylated IL-4 antibody (BD Biosciences Pharmingen) was added to each well. Cells were then incubated for an additional two hours at room temperature, then with streptavidin-alkaline phosphatase (1 μg/ml; Sigma) and plates were developed with substrate (Kirkegaard & Perry Laboratories). After washing, spots were counted using an automated ELISPOT reader (Carl Zeiss). CTL assays were performed by coculturing RNA-transfected DC with autologous PBMC. Cells were restimulated once and IL-2 (20 units/ml) was added after five days and every other day thereafter. After 12 days of culture, effector cells were harvested. Target cells were labeled with 100 μCi of Na2[^51CrO4] (NEN) in 200 μl of complete RPMI 1640 for one hour at 37° C. in 5% CO2 and ^51Cr-labeled target cells were incubated in complete RPMI 1640 medium with effector cells for five hours at 37° C. Then, 50 μl of supernatant was harvested, and release of ^51Cr was measured with a scintillation counter. For proliferation assays, purified CD3^+ T cells were seeded into round-bottomed microplates in the presence of mRNA-transfected DC. […] Incorporation of thymidine was determined using a liquid scintillation counter.

[8] = test system: CD4^+ T-cell populations with increasing densities of CD25; assay: 7-AAD staining of CD4+ T-cell populations; assay type: cell-based, human
[9] = 6-hour exposure, viability over 48 hours

Question: denileukin diftitox [DAB389IL-2] was tested. Which “antigen-specific proliferative reactivities against recall antigens” value [1] did it give?
Answer: unchanged reactivities

Question: And the Treg-mediated immunosuppressive activity [2]?
Answer: abrogation of Treg-mediated immunosuppressive activity in vivo

Question: And the “proliferation of responder cells” value ([3]; DAB389IL-2 added two days after initiation of the MLR)?
Answer: completely abrogated the proliferation of responder cells

Question: And the “inhibitory effect of Treg added to MLR” value ([3]; pre-incubation of Treg with DAB389IL-2 5 nM)?
Answer: significantly abrogated their inhibitory effect

Question: And the “improvement of antigen-specific killing” value ([4]; MART-1 peptide-pulsed DC as stimulators, DAB389IL-2 5 nM)?
Answer: only modest, statistically insignificant improvement of antigen-specific killing

Question: And the “lytic activity of CTL stimulated from Treg-depleted vs non-depleted PBMC” value ([4]; mRNA-transfected DC stimulators (hTERT, MART-1))?
Answer: higher lytic activity against their cognate targets; also recorded: significantly higher lytic activity

Question: What about the “improvement of CTL responses” value ([4]; recall antigen fluM1, or peptide-loaded DC as stimulators) of the same substance?
Answer: ineffective in improving CTL responses

Question: What about the “change in CD8^+/CD25^+ or CD19^+/CD25^+ cells” value ([5]; one subject analyzed) of the same substance?
Answer: no decrease

Question: And the “change in relative number of CD3+, CD4+, CD8+ T cells, B cells, monocytes/macrophages and NK cells” value ([5]; prior to and after treatment)?
Answer: no significant changes

Question: And the “concentration above which cell death occurred in CD4^+CD25^− and CD4^+CD25^int cells” value [6]?
Answer: higher than 10 nM

Question: And the “cell death of CD4^+CD25^− and CD4^+CD25^int cells” value ([6]; concentrations up to 10 nM)?
Answer: did not result in significant cell death

Question: And the “PBMC viability over time” value (PBMC)?
Answer: no significant differences in PBMC viability

Question: What about the “concentration giving complete depletion of CD4^+CD25^high cells” value [7, 9] of the same substance?
Answer: 5 nM

Question: And the “concentration giving efficient killing of CD4^+CD25^high cells” value [7, 9]?
Answer: 0.5 nM

Question: What about the “cell viability of CD4^+CD25^high regulatory T cells” value ([7]; 24 hours following exposure) of the same substance?
Answer: significant reduction in cell viability

Question: What about the “7-AAD staining of other CD4^+ T cells with lower or no CD25 expression” value [8] of the same substance?
Answer: only background levels of 7-AAD staining

Question: And the “concentration giving optimal killing of CD4^+/CD25^high Treg” value ([8]; 7-AAD staining)?
Answer: 5 nM
